According to US9611263B2, “Compounds that modulate intracellular calcium” (CALCIMEDICA, INC., priority 2013, dated 2017):
Read-outs that look alike come from different tables or passages of the source.

Experiments:
STIM1 and Orai1 = STIM1 and Orai1 (Homo sapiens, UniProt Q96D31); details: HEK293 cells co-expressing STIM1 and Orai1; cited from earlier work
Jurkat cells [1] = details: cited from earlier work
Jurkat cells [2] = details: cited from earlier work; remark: listed apart in the source
Orai1/STIM1 = target: T1, Orai1/STIM1 (Homo sapiens, UniProt Q96D31); assay: Fluorescence-based assay of store-operated calcium entry in Orai1/STIM1 stable cells; assay type: cell-based; details: for IC50: HEK-293 cells stably expressing human STIM1 and Orai1, 50% inhibition of Peak-Basal fluorescence signal, read-out: Orai1/STIM1 (IC50, μmol)
T1 construct: expressed in transfected cells
Description: A. Fluorescence-Based Assay of Store-Operated Calcium Entry in Orai1/STIM1 Stable Cells.
Cells stably expressing recombinant human STIM1 and Orai1 are generated by transfecting a human Orai1 expression plasmid (pcDNA3.1-Orai1-cmyc) into HEK-293 cells stably overexpressing human STIM1 (Roos et al. 2005 JCB 169(3): 435-445). Colonies of cells stably expressing both STIM1 and Orai1 proteins are selected and then subcloned by limiting dilution. Cells were cultured at 37° C./6% CO2 in complete medium with 10% FBS and appropriate selection markers.
The day prior to performing the assay Orai1/STIM1 stable cells are plated in 50 μL of complete medium at 90-95% confluence in a 384 well plate. Cells are grown at 37° C./6% CO2 overnight. On the day of the assay, 1.5 μM fluo-4-AM (Invitrogen) in complete medium is added to the cells, which are then incubated for 1 hour at RT. Cells are washed once in Ca^2+-free HBSS (Hank's buffered saline solution) and 35 μl of Ca^2+-free HBSS is added to each well. Test compounds are added to wells in a 10 μL Ca^2+-free HBSS solution, prepared at 4.5× the desired final concentration, and incubated for 30 minutes at RT. The initial baseline fluorescence signal is then measured with a FLIPR^384 (Molecular Devices) plate reader. Calcium entry is initiated by adding 5 μl of 10× CaCl2 (10 mM) in HBSS, and changes in cellular fluorescence are measured with the FLIPR^384 plate reader. In each well, the magnitude of the fluorescence signal as a result of calcium entry into the cell is determined by calculating the difference between the peak fluorescence signal measured after calcium addition and the initial baseline fluorescence signal (designated Peak-Basal). IC50 values are typically calculated as the concentration that inhibited 50% of the Peak-Basal signal.

RBL-2H3 cells = assay: Fluorescence-based assay of store-operated calcium entry in RBL-2H3 cells; assay type: cell-based, rat; details: for IC50: thapsigargin, 50% inhibition of Upslope, read-out: RBL-2H3 (IC50, μmol); for RBL-2H3 efficacy: given in place of a class
Description: B. Fluorescence-Based Assay of Store-Operated Calcium Entry in RBL-2H3 Cells.
RBL-2H3 cells are obtained from ATCC and maintained in complete medium with 10% FBS at 37° C./6% CO2.
The day prior to performing the assay, RBL-2H3 cells are plated in 50 μL of complete medium in a 384 well plate. Cells are grown at 37° C./6% CO2 overnight and grow to 50-60% confluence by the next day. On the assay day, 1.5 μM Fluo-4-AM dye (Invitrogen) in complete medium is added and incubated for 1 hour at RT. Cells are washed twice in Ca^2+-free HBSS buffer and 35 μL Ca^2+-free HBSS buffer is added to each well. 10 μL of a test compound prepared in a Ca^2+-free HBSS solution at 4.5× of the desired concentration is added to a well and incubated for 5 minutes at RT. 10 μL of thapsigargin prepared in a Ca^2+-free HBSS solution at 5.5× of the desired concentration (5.5 uM) is added to each well and incubated for an additional 25 minutes. The initial baseline fluorescence signal is measured with a FLIPR^384 (Molecular Devices) plate reader. 5 μL of 12× calcium in HBSS (12 mM) is added and changes in cellular fluorescence are measured with the FLIPR^384 plate reader. In each well, the change in the fluorescent signal as a function of time due to calcium entry into the cell is determined by calculating the difference between the fluorescent signal measured 7 seconds after calcium addition and the initial baseline fluorescence signal at time zero (t=0). This parameter is designated Upslope. The IC50 value is calculated as the concentration at which 50% of the Upslope is inhibited.

T1 sequence (Q96D31 whole entry): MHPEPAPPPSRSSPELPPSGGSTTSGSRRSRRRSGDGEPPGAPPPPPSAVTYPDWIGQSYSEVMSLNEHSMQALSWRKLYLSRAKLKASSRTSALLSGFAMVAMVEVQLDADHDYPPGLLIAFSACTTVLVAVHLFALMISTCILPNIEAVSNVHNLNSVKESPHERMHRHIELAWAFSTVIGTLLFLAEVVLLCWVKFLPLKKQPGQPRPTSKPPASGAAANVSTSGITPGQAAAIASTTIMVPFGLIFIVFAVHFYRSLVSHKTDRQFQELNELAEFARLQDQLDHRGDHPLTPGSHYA
Sequence of STIM1 and Orai1 (Q96D31 whole entry, species assumed): as the sequence (Q96D31 whole entry) above

| IC50 (Orai1/STIM1) [nM] | IC50 (RBL-2H3 cells; Rattus norvegicus, RBL-2H3) [nM] | Molecule | also measured |
| --- | --- | --- | --- |
| < 600 | < 600 | CCc1nn(-c2nccs2)cc1-c1ccc(NC(=O)c2c(F)ccc(F)c2F)nc1 [Example 36, N-(5-(3-ethyl-1-(thiazol-2-yl)-1H-pyrazol-4-yl)pyridin-2-yl)-2,3,6-trifluorobenzamide] |  |
| < 600 | < 600 | Cc1nn(-c2nccs2)cc1-c1ccc(NC(=O)c2ccccc2F)s1 [Example 70, 2-fluoro-N-(5-(3-methyl-1-(thiazol-2-yl)-1H-pyrazol-4-yl)thiophen-2-yl)benzamide] |  |
| < 600 | < 600 | Cc1nn(-c2nccs2)cc1-c1ccc(NC(=O)c2c(F)cc(F)cc2F)cc1F [Example 14, 2,4,6-trifluoro-N-(3-fluoro-4-(3-methyl-1-(thiazol-2-yl)-1H-pyrazol-4-yl)phenyl)benzamide] |  |
| 600 to 1200 | < 600 | O=C(Nc1ccc(-c2cn(-c3nccs3)nc2C2CC2)c(F)c1)c1c(F)ccc(F)c1F [Example 42, N-(4-(3-cyclopropyl-1-(thiazol-2-yl)-1H-pyrazol-4-yl)-3-fluorophenyl)-2,3,6-trifluorobenzamide] |  |
| < 600 |  | Cc1cnc(-n2cc(-c3ccc(NC(=O)c4c(F)cc(F)cc4F)nc3)c(C)n2)s1 [Example 65, 2,4,6-trifluoro-N-(5-(3-methyl-1-(5-methylthiazol-2-yl)-1H-pyrazol-4-yl)pyridin-2-yl)benzamide] | RBL-2H3 efficacy (RBL-2H3 cells): <50% |
| > 1200 | < 600 | O=C(Nc1ccc(-c2cn(-c3nccs3)nc2C2CC2)c(F)c1)c1c(F)cc(F)cc1F [Example 43, N-(4-(3-cyclopropyl-1-(thiazol-2-yl)-1H-pyrazol-4-yl)-3-fluorophenyl)-2,4,6-trifluorobenzamide] |  |
| < 600 | < 600 | Cc1cccc(F)c1C(=O)Nc1ccc(-c2cn(-c3nccs3)nc2C)cc1 [Example 3, 2-fluoro-6-methyl-N-(4-(3-methyl-1-(thiazol-2-yl)-1H-pyrazol-4-yl)phenyl)benzamide] |  |
| > 1200 | < 600 | CCc1nn(-c2nccs2)cc1-c1ccc(NC(=O)c2cc(F)nc(F)c2)cc1F [Example 34, N-(4-(3-ethyl-1-(thiazol-2-yl)-1H-pyrazol-4-yl)-3-fluorophenyl)-2,6-difluoroisonicotinamide] |  |
| < 600 | < 600 | Cc1nn(-c2nccs2)cc1-c1ccc(NC(=O)c2ccccc2F)cc1F [Example 11, 2-fluoro-N-(3-fluoro-4-(3-methyl-1-(thiazol-2-yl)-1H-pyrazol-4-yl)phenyl)benzamide] |  |
| < 600 | < 600 | Cc1nn(-c2nccs2)cc1-c1cnc(NC(=O)c2c(F)ccc(F)c2F)cn1 [Example 27, 2,3,6-trifluoro-N-(5-(3-methyl-1-(thiazol-2-yl)-1H-pyrazol-4-yl)pyrazin-2-yl)benzamide] |  |

Second part, the molecule before the results:

| Molecule | IC50 (Orai1/STIM1) [nM] | IC50 (RBL-2H3 cells; Rattus norvegicus, RBL-2H3) [nM] | also measured |
| --- | --- | --- | --- |
| NCCOB(c1ccccc1)c1ccccc1 [2-aminoethoxydiphenylborate] |  |  | store-operated Ca2+ entry (STIM1 and Orai1): completely blocked |
| Cc1nnsc1C(=O)Nc1ccc(-n2nc(C(F)(F)F)cc2C(F)(F)F)cc1 [BTP-2] |  |  | SOCE (Jurkat cells [1]): inhibits; proliferation (Jurkat cells [2]): inhibits |
| O=C(Nc1ccc(-c2cn(-c3nccs3)nc2C(F)(F)F)cn1)c1c(F)cccc1F [Example 52, 2,6-difluoro-N-(5-(1-(thiazol-2-yl)-3-(trifluoromethyl)-1H-pyrazol-4-yl)pyridin-2-yl)benzamide] | < 600 | < 600 |  |
| Cc1cccc(F)c1C(=O)Nc1ccc(-c2cn(-c3nccs3)nc2C)c(F)c1 [Example 12, 2-fluoro-N-(3-fluoro-4-(3-methyl-1-(thiazol-2-yl)-1H-pyrazol-4-yl)phenyl)-6-methylbenzamide] | 600 to 1200 | < 600 |  |
| O=C(Nc1ccc(-c2cn(-c3nccs3)nc2C(F)(F)F)c(F)c1)c1c(F)cccc1F [Example 51, 2,6-difluoro-N-(3-fluoro-4-(1-(thiazol-2-yl)-3-(trifluoromethyl)-1H-pyrazol-4-yl)phenyl)benzamide] | > 1200 | < 600 |  |
| Cc1cnc(-n2cc(-c3ccc(NC(=O)c4c(F)cccc4F)nc3)c(C)n2)s1 [Example 63, 2,6-difluoro-N-(5-(3-methyl-1-(5-methylthiazol-2-yl)-1H-pyrazol-4-yl)pyridin-2-yl)benzamide] |  |  | Orai1/STIM1 efficacy (Orai1/STIM1; given in place of a class): <50%; RBL-2H3 efficacy (RBL-2H3 cells): <50% |
| Cc1cnc(-n2cc(-c3ccc(NC(=O)c4c(F)ccc(F)c4F)nc3)c(C)n2)s1 [Example 64, 2,3,6-trifluoro-N-(5-(3-methyl-1-(5-methylthiazol-2-yl)-1H-pyrazol-4-yl)pyridin-2-yl)benzamide] | < 600 | < 600 |  |
| N-(4-(3-ethyl-1-(thiazol-2-yl)-1H-pyrazol-4-yl)phenyl)-2,3,6-trifluorobenzamide [Example 9] | 600 to 1200 |  | IC50 (RBL-2H3 cells): < 600 nM |
| N-(5-(3-ethyl-1-(thiazol-2-yl)-1H-pyrazol-4-yl)pyrazin-2-yl)-2,4,6-trifluorobenzamide [Example 40] | < 600 |  | IC50 (RBL-2H3 cells): < 600 nM |
| Cc1nn(-c2nccs2)cc1-c1ccc(NC(=O)c2ccccc2OC(F)F)cc1 [Example 5, 2-(difluoromethoxy)-N-(4-(3-methyl-1-(thiazol-2-yl)-1H-pyrazol-4-yl)phenyl)benzamide] | < 600 | < 600 |  |
| Cc1ccc(F)c(C(=O)Nc2cnc(-c3cn(-c4nccs4)nc3C)cn2)c1F [Example 30, 2,6-difluoro-3-methyl-N-(5-(3-methyl-1-(thiazol-2-yl)-1H-pyrazol-4-yl)pyrazin-2-yl)benzamide] | 600 to 1200 | < 600 |  |
| N#Cc1nn(-c2cc(F)ccc2F)cc1-c1ccc(NC(=O)c2c(F)cccc2F)nc1 [Example 62, N-(5-(3-cyano-1-(2,5-difluorophenyl)-1H-pyrazol-4-yl)pyridin-2-yl)-2,6-difluorobenzamide] | 600 to 1200 | < 600 |  |
| Cc1ccc(F)c(C(=O)Nc2ccc(-c3cn(-c4ccccc4F)nc3C)cn2)c1F [Example 60, 2,6-difluoro-N-(5-(1-(2-fluorophenyl)-3-methyl-1H-pyrazol-4-yl)pyridin-2-yl)-3-methylbenzamide] | < 600 | < 600 |  |
